Experimental findings from patent US11254686B1 (Corvus Pharmaceuticals, Inc., priority 2017, dated 2022) are described below.

The target of one test is adenosine A2B receptor (Homo sapiens (Human), UniProt P29275). Nature of the test: Adenosine receptor activity assay (Table 1), A2B activity. The class given is biochemical. The note with it: for IC50: read-out: Ave A2B cAMP IC50.
The target in another test is adenosine A2A receptor (Homo sapiens (Human), UniProt P29274). As to the kind of experiment: Adenosine receptor activity assay (Table 1), A2A activity. The following applies: read-out: Ave A2A cAMP IC50. The class given is biochemical.
Setting [1] is: A2A activity to A2B activity (A2A/A2B).
The mark [2] stands for this setting: A2A activity to the A2B activity, A2A/A2B.

Sequence of adenosine A2B receptor (P29275 whole entry): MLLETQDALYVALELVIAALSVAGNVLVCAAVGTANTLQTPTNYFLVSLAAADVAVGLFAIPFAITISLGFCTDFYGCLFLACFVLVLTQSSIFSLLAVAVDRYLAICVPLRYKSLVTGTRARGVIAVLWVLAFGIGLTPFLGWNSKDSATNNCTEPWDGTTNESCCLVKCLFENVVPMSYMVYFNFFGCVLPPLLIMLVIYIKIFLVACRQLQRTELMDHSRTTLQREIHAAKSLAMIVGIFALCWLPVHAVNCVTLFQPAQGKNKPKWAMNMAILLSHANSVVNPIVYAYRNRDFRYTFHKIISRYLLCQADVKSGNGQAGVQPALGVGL
Sequence of adenosine A2A receptor (P29274 whole entry): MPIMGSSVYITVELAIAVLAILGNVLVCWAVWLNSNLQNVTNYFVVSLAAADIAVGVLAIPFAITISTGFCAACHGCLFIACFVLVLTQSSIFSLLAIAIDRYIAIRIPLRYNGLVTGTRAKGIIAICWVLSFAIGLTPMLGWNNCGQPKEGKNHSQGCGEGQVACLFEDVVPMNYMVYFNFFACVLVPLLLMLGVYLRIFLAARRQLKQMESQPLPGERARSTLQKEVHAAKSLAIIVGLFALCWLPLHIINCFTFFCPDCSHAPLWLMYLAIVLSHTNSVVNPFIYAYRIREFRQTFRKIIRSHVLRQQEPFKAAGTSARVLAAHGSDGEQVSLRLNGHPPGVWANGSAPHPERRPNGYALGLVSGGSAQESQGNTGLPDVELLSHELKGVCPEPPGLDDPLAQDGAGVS

The IC50 is the midpoint of a concentration-inhibition curve. For the compound `COc1ccc(Oc2cc(CNC(=O)c3nc(N[C@@H](C)c4cncc(F)c4)nc4ccsc34)ccn2)cc1` [Example Z398, (S)-2-((1-(5-Fluoropyridin-3-yl)ethyl)amino)-N-((2-(4-methoxyphenoxy)pyridin-4-yl)methyl)thieno[3,2-d]pyrimidine-4-carboxamide], the Ratio on adenosine A2B receptor (setting [1]) was found to be 2.82. The half-maximal inhibitory concentration (IC50) on adenosine A2B receptor and on adenosine A2A receptor was 100 to 500 nM in each case.
For `Cc1cc2nc(N[C@@H](C)c3cccnc3)nc(C(=O)NCc3ccccn3)c2s1` [Example Z457, (S)-6-Methyl-N-(pyridin-2-ylmethyl)-2-((1-(pyridin-3-yl)ethyl)amino)thieno[3,2-d]pyrimidine-4-carboxamide], on adenosine A2B receptor (setting [2]), the Ratio is reported as 2.73. The IC50 on adenosine A2B receptor was in the range of 50 to 100 nM; at adenosine A2A receptor, 100 to 500 nM.
For `C[C@H](Nc1nc(C(=O)N2CCC(C)(C)C2)c2sccc2n1)c1cccnc1` [Example Z3, (S)-(3,3-Dimethylpyrrolidin-1-yl)(2-((1-(pyridin-3-yl)ethyl)amino)thieno[3,2-d]pyrimidin-4-yl)methanone], the Ratio at adenosine A2B receptor (setting [1]) amounted to 1.26. The IC50 at adenosine A2B receptor and on adenosine A2A receptor was 100 to 500 nM in each case.
As for `C[C@H](Nc1nc(C(=O)NCc2cncc(C#N)c2)c2sccc2n1)c1cccnc1` [Example Z104, (S)—N-((5-Cyanopyridin-3-yl)methyl)-2-((1-(pyridin-3-yl)ethyl)amino)thieno[3,2-d]pyrimidine-4-carboxamide], the Ratio on adenosine A2B receptor (setting [1]) is recorded as 0.50. Moreover, the IC50 at adenosine A2B receptor is over 500 nM; at adenosine A2A receptor it was 100 to 500 nM.
With `Cc1csc2c(C(=O)NCCc3cccc(O)c3)nc(N[C@@H](C)c3ccccn3)nc12` [Example Z447, (S)—N-(3-Hydroxyphenethyl)-7-methyl-2-((1-(pyridin-2-yl)ethyl)amino)thieno[3,2-d]pyrimidine-4-carboxamide], the Ratio on adenosine A2B receptor (setting [2]) stood at 1.23. The IC50 at adenosine A2B receptor and on adenosine A2A receptor was 50 to 100 nM each time.
Regarding `C[C@H](Nc1nc(C(=O)N2CC[C@H](N)C2)c2sccc2n1)c1ccccn1` [Example Z363, ((S)-3-Aminopyrrolidin-1-yl)(2-(((S)-1-(pyridin-2-yl)ethyl)amino)thieno[3,2-d]pyrimidin-4-yl)methanone], the Ratio on adenosine A2B receptor (setting [1]) is reported as 23.53. Further, the half-maximal inhibitory concentration (IC50) on adenosine A2B receptor was 100 to 500 nM; on adenosine A2A receptor, over 500 nM.
Taken in the same sequence, the figures for `C[C@H](Nc1nc(C(=O)NCCC2CCN(C(=O)OC(C)(C)C)CC2)c2sccc2n1)c1ccccn1` [Example Z342, tert-Butyl (S)-4-(2-(2-((1-(Pyridin-2-yl)ethyl)amino)thieno[3,2-d]pyrimidine-4-carboxamido)ethyl)piperidine-1-carboxylate] were 2.11, 100 to 500 nM and 100 to 500 nM.
Turning to `C[C@H](Nc1nc(C(=O)NCCC2CN(C(=O)OC(C)(C)C)C2)c2sccc2n1)c1ccccn1` [Example Z426, tert-Butyl (S)-3-(2-(2-((1-(pyridin-2-yl)ethyl)amino)thieno[3,2-d]pyrimidine-4-carboxamido)ethyl)azetidine-1-carboxylate], the Ratio on adenosine A2B receptor (setting [2]) is given as 3.47. Moreover, the IC50 on adenosine A2B receptor was in the range of 50 to 100 nM; at adenosine A2A receptor it was 100 to 500 nM.
Regarding `CC(=O)N[C@@H]1CCN(C(=O)c2nc(N[C@@H](C)c3ccccn3)nc3ccsc23)C1` [Example Z317, N—((R)-1-(2-(((S)-1-(Pyridin-2-yl)ethyl)amino)thieno[3,2-d]pyrimidine-4-carbonyl)pyrrolidin-3-yl)acetamide], on adenosine A2B receptor (setting [1]), the Ratio turned out to be 6.69. Also, the half-maximal inhibitory concentration (IC50) on adenosine A2B receptor and on adenosine A2A receptor was over 500 nM in each case.
Consider `C[C@H](O)CNC(=O)c1nc(NCc2cncc(C(F)(F)F)c2)nc2ccsc12` [Example Z265, (S)—N-(2-Hydroxypropyl)-2-(((5-(trifluoromethyl)pyridin-3-yl)methyl)amino)thieno[3,2-d]pyrimidine-4-carboxamide], for which the Ratio at adenosine A2B receptor (setting [1]) was found to be 16.94. Moreover, the concentration for half-maximal inhibition (IC50) on adenosine A2B receptor is 100 to 500 nM; at adenosine A2A receptor it was over 500 nM.
`CO[C@H](C)CNC(=O)c1nc(N[C@@H](C)c2cccnc2)nc2cc(C)sc12` [Example Z400, N—((R)-2-Methoxypropyl)-6-methyl-2-(((S)-1-(pyridin-3-yl)ethyl)amino)thieno[3,2-d]pyrimidine-4-carboxamide]: the Ratio on adenosine A2B receptor (setting [2]) came to 12.22. Also, the half-maximal inhibitory concentration (IC50) at adenosine A2B receptor is 50 to 100 nM; at adenosine A2A receptor, over 500 nM.
Taken in the same sequence, the figures for `Cc1cc2nc(N[C@@H](C)c3cncc(F)c3)nc(C(=O)NCCC3CN(C(=O)C(F)(F)F)C3)c2s1` [Example Z521, (S)-2-((1-(5-Fluoropyridin-3-yl)ethyl)amino)-6-methyl-N-(2-(1-(2,2,2-trifluoroacetyl)azetidin-3-yl)ethyl)thieno[3,2-d]pyrimidine-4-carboxamide] were 0.06, over 500 nM and over 500 nM.
Take `C[C@H](Nc1nc(C(=O)N2CCNC2)c2sccc2n1)c1cncc(F)c1` [Example Z381, (S)-(2-((1-(5-Fluoropyridin-3-yl)ethyl)amino)thieno[3,2-d]pyrimidin-4-yl)(imidazolidin-1-yl)methanone]: the Ratio on adenosine A2B receptor (setting [1]) is listed as 47.20. In addition, the IC50 at adenosine A2B receptor was 10 to 50 nM; on adenosine A2A receptor it was over 500 nM.
As for `Cc1cc2nc(N[C@@H](C)c3cccnc3)nc(C(=O)N3CC(CNC(=O)C(C)(C)C)C3)c2s1` [Example Z505, (S)—N-((1-(6-Methyl-2-((1-(pyridin-3-yl)ethyl)amino)thieno[3,2-d]pyrimidine-4-carbonyl)azetidin-3-yl)methyl)pivalamide], the concentration for half-maximal inhibition (IC50) at adenosine A2B receptor and on adenosine A2A receptor was 100 to 500 nM each time.
Regarding `Cc1cncc(CNc2nc(C(=O)N3CC[C@H](O)C3)c3sccc3n2)c1` [Example Z56, (S)-(3-Hydroxypyrrolidin-1-yl)(2-(((5-methylpyridin-3-yl)methyl)amino)thieno[3,2-d]pyrimidin-4-yl)methanone], the Ratio on adenosine A2B receptor (setting [1]) turned out to be 50.76. The IC50 at adenosine A2B receptor is 100 to 500 nM; on adenosine A2A receptor, over 500 nM.
Take `CNC1CN(C(=O)c2nc(NCc3cncc(F)c3)nc3ccsc23)C1` [Example Z358, (2-(((5-Fluoropyridin-3-yl)methyl)amino)thieno[3,2-d]pyrimidin-4-yl)(3-(methylamino)azetidin-1-yl)methanone]: on adenosine A2B receptor (setting [1]), the Ratio is given as 69.69. Also, the values for the IC50 on adenosine A2B receptor and at adenosine A2A receptor were 100 to 500 nM and over 500 nM, respectively.
For `Cc1cc2nc(N[C@@H](C)c3cccnc3)nc(C(=O)NCCN3CCOCC3)c2s1` [Example Z378, (S)-6-Methyl-N-(2-morpholinoethyl)-2-((1-(pyridin-3-yl)ethyl)amino)thieno[3,2-d]pyrimidine-4-carboxamide], at adenosine A2B receptor (setting [1]), the Ratio worked out at 15.93. The IC50 at adenosine A2B receptor was 100 to 500 nM; on adenosine A2A receptor, over 500 nM.
The corresponding values for `C[C@H](Nc1nc(C(=O)N2CC[C@H](F)C2)c2sc(N)cc2n1)c1cccnc1` [Example Z204, (6-Amino-2-(((S)-1-(pyridin-3-yl)ethyl)amino)thieno[3,2-d]pyrimidin-4-yl)((S)-3-fluoropyrrolidin-1-yl)methanone] are 13.13, 10 to 50 nM and 100 to 500 nM.
Taken in the same sequence, the figures for `COc1ccc(CNc2nc(C(=O)N3CCCC3)c3sccc3n2)cn1` [Example Z17, (2-(((6-Methoxypyridin-3-yl)methyl)amino)thieno[3,2-d]pyrimidin-4-yl)(pyrrolidin-1-yl)methanone] were 0.19, 100 to 500 nM and 50 to 100 nM.
The corresponding values for `Cc1cc2nc(N[C@@H](C)c3cccnc3)nc(C(=O)NCC3CCOCC3)c2s1` [Example Z375, (S)-6-Methyl-2-((1-(pyridin-3-yl)ethyl)amino)-N-((tetrahydro-2H-pyran-4-yl)methyl)thieno[3,2-d]pyrimidine-4-carboxamide] are 7.89, 10 to 50 nM and 100 to 500 nM.
As for `COc1cncc(CNC(=O)c2nc(N[C@@H](C)c3ccccn3)nc3ccsc23)c1` [Example Z110, (S)—N-((5-Methoxypyridin-3-yl)methyl)-2-((1-(pyridin-2-yl)ethyl)amino)thieno[3,2-d]pyrimidine-4-carboxamide], the Ratio on adenosine A2B receptor (setting [1]) is 3.23. The IC50 at adenosine A2B receptor was 50 to 100 nM.
As to `C[C@H](Nc1nc(C(=O)NCCc2ccccc2O)c2sccc2n1)c1cncc(F)c1` [Example Z448, (S)-2-((1-(5-fluoropyridin-3-yl)ethyl)amino)-N-(2-hydroxyphen-ethyl)thieno[3,2-d]pyrimidine-4-carboxamide], on adenosine A2A receptor, the IC50 was in the range of 100 to 500 nM.
With `COCC(Nc1nc(C(=O)N2CCC2)c2sccc2n1)c1cccnc1` (stereo not shown) [Example Z126, Azetidin-1-yl(2-((2-methoxy-1-(pyridin-3-yl)ethyl)amino)thieno[3,2-d]pyrimidin-4-yl)methanone], the IC50 at adenosine A2B receptor lay in the range of 10 to 50 nM.
`CCC(Nc1nc(C(=O)NCc2ccc(OC)nc2)c2sccc2n1)c1cccnc1` (stereo not shown) [Example Z83, N-((6-Methoxypyridin-3-yl)methyl)-2-((1-(pyridin-3-yl)propyl)amino)thieno[3,2-d]pyrimidine-4-carboxamide]: the half-maximal inhibitory concentration (IC50) on adenosine A2A receptor is 100 to 500 nM.
On the same count and under the same terms, for `C[C@H](Nc1nc(C(=O)N[C@H]2CC[C@@H](O)C2)c2sccc2n1)c1ccccn1` [Example Z332, N-((1S,3R)-3-Hydroxycyclopentyl)-2-(((S)-1-(pyridin-2-yl)ethyl)amino)thieno[3,2-d]pyrimidine-4-carboxamide] the value was 100 to 500 nM.
On to `C[C@H](Nc1nc(C(=O)N2CC[C@@H](S(C)(=O)=O)C2)c2sccc2n1)c1ccccn1` [Example Z256], for which the IC50 at adenosine A2B receptor lay in the range of 100 to 500 nM.
On the same count and under the same terms, for `CNCC1CN(C(=O)c2nc(N[C@@H](C)c3cncc(F)c3)nc3ccsc23)C1` [Example Z544, (S)-(2-((1-(5-Fluoropyridin-3-yl)ethyl)amino)thieno[3,2-d]pyrimidin-4-yl)(3-((methylamino)methyl)azetidin-1-yl)methanone] the value was 100 to 500 nM.
